The record followed here is patent US9326513B2, “Fungicidal compositions” (Syngenta Participations AG, priority 2011, dated 2016).

Data set [1] relates to Puccinia recondita f. sp. tritici. Put plainly: Puccinia recondita f. sp. tritici / wheat / leaf disc curative (brown rust). It counts as in vivo. The conditions noted are these: foliar, compared to untreated control leaf disks, read-out: disease control. On the procedure:
Puccinia recondita f. sp. tritici/Wheat/Leaf Disc Curative (Brown Rust) Wheat leaf segments cv. Kanzler are placed on agar in multiwell plates (24-well format). The leaf segments are inoculated with a spore suspension of the fungus. Plates were stored in darkness at 19° C. and 75% rh. The formulated test compound diluted in water was applied 1 day after inoculation.

In a further data set the test system is Pyrenophora teres. Kind of data set: Pyrenophora teres / barley / leaf disc preventative (net blotch). The conditions noted are these: foliar, compared to untreated control leaf disks, read-out: disease control. It counts as in vivo. The source says: Pyrenophora teres/Barley/Leaf Disc Preventative (Net Blotch) Barley leaf segments cv. Hasso were placed on agar in a multiwell plate (24-well format) and sprayed with the formulated test compound diluted in water. The leaf segments were inoculated with a spore suspension of the fungus 2 days after application.

For data set [2], the system named is Puccinia recondita f. sp. tritici. Kind of data set: Puccinia recondita f. sp. tritici / wheat / leaf disc preventative (brown rust). It counts as in vivo. The conditions noted are these: foliar, compared to untreated control leaf disks, read-out: disease control. The text has this: Puccinia recondita f. sp. tritici/Wheat/Leaf Disc Preventative (Brown Rust) Wheat leaf segments cv. Kanzler were placed on agar in multiwell plates (24-well format) and sprayed with the formulated test compound diluted in water. The leaf disks were inoculated with a spore suspension of the fungus 1 day after application.

The test system of data set [3] is Blumeria graminis f. sp. tritici (Erysiphe graminis f. sp. tritici). Put plainly: Blumeria graminis f. sp. tritici / wheat / leaf disc preventative (powdery mildew on wheat). It counts as in vivo. The conditions noted are these: foliar, compared to untreated control leaf disks, read-out: disease control. In short, it runs like this:
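Wheat leaf segments (cv. Kanzler) on agar were sprayed with formulated compound in water, inoculated with powdery mildew 1 day later, and kept at 20° C, 60% rh (24 h dark, then 12 h light/12 h dark). Percent disease control versus untreated scored 6-8 days after application; tested at 200 ppm.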

Another data set deals with Sphaerotheca fuliginea. Put plainly: Sphaerotheca fuliginea (powdery mildew) on cucumber, preventive treatment. The conditions noted are these: solo, 2 days preventive, 10 days after application. The class given is in vivo. The text has this:
In the following Tables 'Activity (%)' means the assessed experimental activity (% disease control in this test when compared to untreated control leaf disks under the same conditions, which show extensive disease development) and “P” is the expected value calculated (expected) activity according to the COLBY formula (see above). The column headed 'S?' indicates whether or not synergy was observed, with 'y' meaning that synergy was observed. Sphaerotheca fuliqinea (Powdery Mildew) on Cucumber, Preventive Treatment […] Cucumber plants with unfolded cotyledons were sprayed with a roomsprayer and 40 ml/4 plants spray volume with the test compounds, either solo or in […] shown in the table below. 2 days after application the plants were infested with spores of Sphaerotheca fuliginea.

The subject of data set [4] is Septoria tritici. Put plainly: Septoria tritici on wheat, preventive treatment. The class given is in vivo. The conditions noted are these: solo, wheat Riband, 1 day preventive, 18 days after application.
The test system of data set [5] is Septoria tritici. Put plainly: Septoria tritici (leaf blotch), YBG microtiter plate, photometric growth inhibition after 6 days. The class given is cell-based. The conditions noted are these: Zymoseptoria tritici, 144 h, read-out: Activity. The source says: In the following Tables ‘Activity (%)’ means the assessed experimental activity (% disease control in this test when compared to untreated control leaf disks under the same conditions, which show extensive disease development) and “P” is the expected value calculated (expected) activity according to the COLBY formula (see above). The column headed ‘S?’ indicates whether or not synergy was observed, with ‘y’ meaning that synergy was observed.
Septoria tritici (Leaf Blotch):
After placing solutions of the test compounds (containing 0.2% DMSO) into a microtiter plate (96-well format), an equal amount of the nutrient broth (YBG) was added to each of the well. Finally the fungal spore solution was added. The test plates were incubated at 20° C. The inhibition of growth was determined photometrically after 6 days and the activity calculated in relation to untreated control.

The melting point is the temperature of the solid-liquid transition. Take `C#Cc1cccc(COc2nc(C)c(/N=C/N(C)CC)cc2Br)c1` [Q.195]: the melting point lay within 52 to 54 °C. For the same compound, the pest or weed control at 200 ppm in data set [1] is not below 50%. The pest or weed control at 200 ppm in the data set on Pyrenophora teres was not below 50%. Further, the pest or weed control at 200 ppm in data set [2] is not below 50%. The pest or weed control at 200 ppm in data set [3] is not below 50%.
Turning to `CSC(=O)c1cccc2nnsc12` [Acibenzolar-s-methyl], the Activity turned out to be 0% with Sphaerotheca fuliginea (rate 0.6 ppm), 0% in the data set with Sphaerotheca fuliginea (rate 2 ppm), 0% with Sphaerotheca fuliginea (rate 6 ppm) and 4% with Sphaerotheca fuliginea (rate 20 ppm).
For the compound `CCN(C)/C=N/c1cc(Br)c(OC(C)c2ccccc2-c2ccccc2)nc1C` (stereo not drawn) [Q.295], the melting point is 59 to 62 °C. Further, the pest or weed control at 200 ppm in data set [2] was not below 50%.
With `CCN(C)/C=N/c1cc(Br)c(OCc2cccc(F)c2C)nc1C` [Q.322], the melting point is 67 to 68 °C. In data set [1], the pest or weed control at 200 ppm is not below 50%. The pest or weed control at 200 ppm in the data set with Pyrenophora teres is not below 50%. Besides, the pest or weed control at 200 ppm in data set [2] was not below 50%. Further, the pest or weed control at 200 ppm in data set [3] was not below 50%.
For `CCN(C)/C=N/c1cc(Br)c(OCc2cccc(C)c2)nc1C` [Q.128], the melting point lay within 60 to 62 °C. Moreover, in data set [1], the pest or weed control at 200 ppm is not below 50%. Also, the pest or weed control at 200 ppm with Pyrenophora teres was not below 50%. The pest or weed control at 200 ppm in data set [2] is not below 50%. Moreover, the pest or weed control at 200 ppm in data set [3] was not below 50%.
The compound `CCN(C)/C=N/c1cc(Br)c(OCc2cc(C)ns2)nc1C` [Q.235] showed a melting point of 55 to 57 °C. The pest or weed control at 200 ppm in data set [1] was not below 50%. Further, the pest or weed control at 200 ppm in the data set on Pyrenophora teres is not below 50%. For the same compound, the pest or weed control at 200 ppm in data set [2] is not below 50%. For the same compound, the pest or weed control at 200 ppm in data set [3] is not below 50%.
For `CCN(C)/C=N/c1cc(Br)c(OCc2cccc(NC(=O)OC(C)(C)C)c2)nc1C` [Q.236], the melting point fell in the range of 40 to 42 °C. In addition, the pest or weed control at 200 ppm in data set [1] is not below 50%. In the data set with Pyrenophora teres, the pest or weed control at 200 ppm is not below 50%. Besides, in data set [2], the pest or weed control at 200 ppm is not below 50%.
Regarding `CC1COC(Cn2cncn2)(c2ccc(Oc3ccc(Cl)cc3)cc2Cl)O1` (stereo not drawn) [Difenoconazole], the Activity in the data set on Septoria tritici [4] (0.33 g a.i./ha) was determined as 0%; in the data set with Septoria tritici [4] (1 g a.i./ha), 0%; in the data set on Septoria tritici [4] (3 g a.i./ha), 0%; in the data set with Septoria tritici [4] (9 g a.i./ha) it was 3%; in the data set with Septoria tritici [4] (27 g a.i./ha), 5%. Further, the inhibition of growth at 0.15625 ppm in the data set on Septoria tritici [5] was 48%.
For `CCN(C)/C=N/c1cc(Br)c(OCc2c(C)cccc2C)nc1C` [Q.325], the melting point lay in the range of 56 to 57 °C. Besides, the pest or weed control at 200 ppm in data set [1] was not below 50%. For the same compound, in data set [2], the pest or weed control at 200 ppm is not below 50%. Further, the pest or weed control at 200 ppm in data set [3] is not below 50%.
On to `CCN(C)/C=N/c1cc(Br)c(OCCc2cc(C)cc(C)c2)nc1C` [Q.422], for which the melting point was in the range of 61 to 63 °C.
As for `CCN(C)/C=N/c1cc(Br)c(OCc2cc(C)ccc2C)nc1C` [Q.154], the melting point was 53 to 57 °C. In data set [1], the pest or weed control at 200 ppm was not below 50%. For the same compound, in the data set with Pyrenophora teres, the pest or weed control at 200 ppm was not below 50%. The pest or weed control at 200 ppm in data set [2] is not below 50%. In data set [3], the pest or weed control at 200 ppm is not below 50%.
For `CCN(C)/C=N/c1cc(Br)c(OCc2ccccc2Cl)nc1C` [Q.300], the melting point lay in the range of 53 to 56 °C. Also, the pest or weed control at 200 ppm in data set [1] was not below 50%. In addition, the pest or weed control at 200 ppm in data set [2] is not below 50%. Further, the pest or weed control at 200 ppm in data set [3] is not below 50%.
`CCN(C)/C=N/c1cc(Br)c(OC2CCCc3ccc(-c4cccc(F)c4)cc32)nc1C` (stereo not drawn) [Q.137] returned a melting point of 43 to 45 °C. Further, the pest or weed control at 200 ppm in data set [2] is not below 50%.
Turning to `CCN(C)/C=N/c1cc(Br)c(OCc2ccc(F)cc2C)nc1C` [Q.320], the melting point is 27 to 30 °C. In addition, in data set [1], the pest or weed control at 200 ppm is not below 50%. The pest or weed control at 200 ppm in the data set on Pyrenophora teres was not below 50%. In addition, the pest or weed control at 200 ppm in data set [2] was not below 50%. Besides, the pest or weed control at 200 ppm in data set [3] is not below 50%.
The compound `CCN(C)/C=N/c1cc(Br)c(OCc2cc(C)cc(C)c2)nc1C` [Q.207] yielded a melting point of 57 to 58 °C. Further, the pest or weed control at 200 ppm in data set [1] is not below 50%. Further, in the data set on Pyrenophora teres, the pest or weed control at 200 ppm was not below 50%. Also, the pest or weed control at 200 ppm in data set [2] was not below 50%. In addition, the pest or weed control at 200 ppm in data set [3] was not below 50%.
Consider `CCN(C)/C=N/c1cc(Br)c(OCCc2ccc(F)cc2)nc1C` [Q.129], for which the melting point is 46 to 48 °C. In addition, in data set [1], the pest or weed control at 200 ppm is not below 50%. In addition, in the data set on Pyrenophora teres, the pest or weed control at 200 ppm is not below 50%. Also, in data set [2], the pest or weed control at 200 ppm is not below 50%. Moreover, the pest or weed control at 200 ppm in data set [3] is not below 50%.
With `CCN(C)/C=N/c1cc(Br)c(OCc2c(F)cccc2F)nc1C` [Q.326], the melting point is 61 to 62 °C. Further, the pest or weed control at 200 ppm in data set [1] is not below 50%. In the data set on Pyrenophora teres, the pest or weed control at 200 ppm was not below 50%. Further, in data set [2], the pest or weed control at 200 ppm is not below 50%. Also, in data set [3], the pest or weed control at 200 ppm is not below 50%.
Take `CCN(C)/C=N/c1cc(Br)c(OCc2ccccc2F)nc1C` [Q.298]: the melting point lay in the range of 57 to 61 °C. Moreover, the pest or weed control at 200 ppm in data set [1] was not below 50%. Also, the pest or weed control at 200 ppm in the data set on Pyrenophora teres was not below 50%. For the same compound, the pest or weed control at 200 ppm in data set [2] is not below 50%. Moreover, the pest or weed control at 200 ppm in data set [3] was not below 50%.
Compound `CCN(C)/C=N/c1cc(Br)c(OCc2ccnc(Cl)c2)nc1C` [Q.111] registered a melting point of 57 to 59 °C. In data set [1], the pest or weed control at 200 ppm was not below 50%. For the same compound, the pest or weed control at 200 ppm with Pyrenophora teres is not below 50%. The pest or weed control at 200 ppm in data set [2] was not below 50%. In addition, in data set [3], the pest or weed control at 200 ppm is not below 50%.
As for `CCN(C)/C=N/c1cc(Br)c(OCc2cccc(C(F)(F)F)c2)nc1C` [Q.153], the melting point lay within 43 to 44 °C. Also, in data set [1], the pest or weed control at 200 ppm is not below 50%. The pest or weed control at 200 ppm in the data set on Pyrenophora teres is not below 50%. Moreover, in data set [2], the pest or weed control at 200 ppm was not below 50%. Besides, the pest or weed control at 200 ppm in data set [3] is not below 50%.
